Measurements taken from patent US11999770B2, “Peptides and nanoparticle formulations thereof” (University of Bradford, priority 2016, dated 2024).

How the values were obtained:
MDA-MB231 invasion = test: MDA-MB231 invasion; format: cell-based, human; details: loaded nanoparticles
MDA-MB-231 cells [1] = test: Cytotoxicity / cell viability (MTT assay); format: cell-based, human; details: for activity against the proliferation of MDA MB-231 triple negative breast cancer cells: dosed as nanoparticles
Method: Cytotoxicity of an optimised peptide NP formulation (F18) containing peptide of SEQ ID NO: 5 was measured by assessing cell viability (MTT assay). The MDA-MB-231 cells were seeded in 24-well plates (Nalgen Nunc International, Ochester, NY) at a density of 5×10^4 cells per well and incubated for 24 hours to allow for 60-70% confluency and sufficient adhesion. The cells were treated with different concentrations of the peptide-loaded NP, free peptide (SEQ ID NO: 5) and blank NP. After 24, 48, 72 and 96 hours, the treated cells were washed with 500 μl PBS, and 500 μl of 15% MTT dye solution in complete media added to each well. The plates were incubated at 37° C. and 5% CO2 for an additional 3 hours. The supernatant was then discarded, 500 μl DMSO added and the solution vigorously mixed. The optical density of each well was measured at 570 nm (reference wavelength 630 nm) in a microplate reader (Fluostar Omega, BMG Lab Tech GMBH, Germany). This experiment was performed in triplicate and repeated three times. Mean values±SD for each concentration was determined. Percentage cell viability was determined as the ratio of absorbance (570 nm) in treated cells relative to the absorbance in control cells (570 nm). The absorbance of the untreated cells was set at 100%. The IC50 was defined as the concentration of sample needed to reduce the signal by 50% relative to the control.

MDA-MB-231 cells [2] = test: Cell cycle analysis (PI flow cytometry); format: cell-based, human
Method: To determine the effect of peptide (SEQ ID NO: 5)-loaded NP on cell growth, cultured cells were treated with the same doses of free peptide and peptide-loaded NP as used in the cell viability assay. After 24 and 48 hours of treatment, cells were suspended in PBS and fixed by addition of 70% ice-cold methanol. Cells were treated by adding RNase (1.0 μg ml^−1) to the samples and re-suspending in propidium iodide (PI) stain (5.0 μg ml^−1). PI fluorescence intensity was determined using flow cytometry through a FL-2A filter at 585 nm. Flow-cytometric data were analysed using Cyflogic (v.1.2.1) software. Quantification of apoptotic cells was determined by flow cytometry as the percentage of cells in the sub-G1 region (hypodiploidy) in cell cycle analysis as previously described [PLoS ONE, 6 (2011) e23640].

[3] = biological target: T1, RanGDP-RCC1 protein-protein interaction (Homo sapiens, UniProt P18754); test: Ran activation assay (MDA MB-231 cell lysate, RanBP1 agarose beads); format: biochemical
T1 construct: endogenous in cells; host or cells: MDA MB-231 cell lysate
T1 sequence (P18754 2-421 limits assumed): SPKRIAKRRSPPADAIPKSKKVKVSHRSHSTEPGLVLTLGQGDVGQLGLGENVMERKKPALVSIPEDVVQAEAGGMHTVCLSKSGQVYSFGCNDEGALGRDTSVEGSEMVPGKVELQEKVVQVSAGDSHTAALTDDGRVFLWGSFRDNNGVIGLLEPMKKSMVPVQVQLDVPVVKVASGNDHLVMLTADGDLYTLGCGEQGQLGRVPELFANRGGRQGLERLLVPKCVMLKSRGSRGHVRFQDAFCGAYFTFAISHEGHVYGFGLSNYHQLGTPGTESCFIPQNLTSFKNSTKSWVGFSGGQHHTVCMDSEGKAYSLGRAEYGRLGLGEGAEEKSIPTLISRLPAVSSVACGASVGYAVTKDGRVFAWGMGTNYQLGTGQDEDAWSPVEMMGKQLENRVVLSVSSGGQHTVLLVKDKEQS
Method: Lane 1 is positive control for activated Ran complex & Lane 2, MDA MB-231 cell lysate, Lane 3 MDA MB-231 cell lysate loaded with GDP and incubated (negative control) with RanBP1 Agarose beads. Lane 4, MDA MB-231 cell lysate loaded with GTPyS (positive control) incubated with RanBP1 Agarose beads. Lane 5, MDA MB231 cell lysate treated by N-Terminal peptide, Lane 6, MDA MB-231 cell lysate loaded with GD and treated with N-terminal peptide SEQ ID NO: 5, Lane 7, MDA MB231 cell lysate loaded with GTPyS and treated with N-terminal peptide SEQ ID NO: 5 incubated with RanBP1 Agarose beads. […] It can therefore be seen that the N-terminal peptide SEQ ID NO: 5 disturbs the interaction between Ran-RCC1 by direct binding to RCC1.
In this figure, Lane 1 is positive control (activated Ran protein); Lane 2, MDA MB-231 cell lysate; Lane 3 MDA MB-231 cell lysate loaded with GDP and incubated (negative control) with RanBP1 Agarose beads; Lane 4, MDA MB-231 cell lysate loaded with GTPyS (positive control) incubated with RanBP1 Agarose beads; Lane 5, MDA MB-231 cell lysate treated by peptide of SEQ ID 5; Lane 6, MDA MB-231 cell lysate loaded with GD and treated with peptide of SEQ ID 5; and Lane 7, MDA MB-231 cell lysate loaded with GTPyS and treated with peptide of SEQ ID 5 incubated with RanBP1 Agarose beads.

[4] = Isoelectric point of the peptide; format: physicochemical
A549 lung cancer cells = test: A549 lung cancer cell viability; format: cell-based, human; details: dosed as nanoparticles
MDA-MB231 migration = test: MDA-MB231 migration; format: cell-based, human; details: loaded nanoparticles
[5] = biological target: T2, RanGDP-RCC1 protein-protein interaction (Homo sapiens, UniProt P18754); test: AlphaScreen assay; format: binding; details: in the absence of GTP
T2 sequence (P18754 1-421): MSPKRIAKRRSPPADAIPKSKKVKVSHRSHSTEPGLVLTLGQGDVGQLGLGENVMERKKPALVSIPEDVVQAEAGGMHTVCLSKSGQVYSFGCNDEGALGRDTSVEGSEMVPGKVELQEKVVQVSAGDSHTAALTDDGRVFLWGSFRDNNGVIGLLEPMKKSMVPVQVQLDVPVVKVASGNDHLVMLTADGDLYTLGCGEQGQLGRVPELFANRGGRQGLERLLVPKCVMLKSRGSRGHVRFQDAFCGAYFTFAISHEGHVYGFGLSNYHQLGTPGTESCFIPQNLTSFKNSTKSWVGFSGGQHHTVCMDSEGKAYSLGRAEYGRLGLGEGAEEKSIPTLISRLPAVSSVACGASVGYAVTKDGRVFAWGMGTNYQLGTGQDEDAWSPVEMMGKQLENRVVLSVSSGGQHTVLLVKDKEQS
From the text: The direct effect of the inhibitor of SEQ ID NO: 5 on the RanGDP-RCC1 interaction was also studied by AlphaScreen™ assay. This assay employs bead-based chemistry used to study biomolecular interactions in a microplate format, the acronym ALPHA stands for Amplified Luminescent Proximity Homogeneous Assay. In brief, the system uses two photosensitive bead types, a first donor bead that can absorb light from an external light source and a second acceptor bead that can first absorb energy from the donor bead if the beads are in close proximity and then in turn emit light. The Ran protein was attached to the donor bead and the RCC1 protein was attached to the acceptor bead. In the absence of peptide inhibitor the interaction of Ran and RCC1 hold the beads in close proximity and the emission from the acceptor bead is detectable.

## CAQGEPQVQFK [SEQ ID NO: 5]
MDA-MB231 invasion
  effect on MDA-MB231 invasion: inhibitory effect
MDA-MB-231 cells [1]; 2, 4 and 8 μM, 24, 48, 72 and 96 hours
  cytotoxic action (cell viability): no significant cytotoxicity
MDA-MB-231 cells [1]
  activity against the proliferation of MDA MB-231 triple negative breast cancer cells: significant activity
MDA-MB-231 cells [2]
  growth rate of the cells: not affected
[3]
  effect on Ran-GDP/RCC1 interaction (activated Ran pull-down): disturbs the interaction between Ran-GDP and RCC1
[4]
  isoelectric point (pI): around 6.0
A549 lung cancer cells
  activity against the proliferation of A549 lung cancer cells: significant activity
MDA-MB231 migration
  effect on MDA-MB231 migration: inhibitory effect
[5]
  inhibition of complex formation: 45%

## CQYEHDLEVAQTTALP [SEQ ID NO: 7, Ran positions 196 to 210 with N-terminal Cys]
MDA-MB-231 cells [1]
  activity against the proliferation of MDA MB-231 triple negative breast cancer cells: significant activity
A549 lung cancer cells
  activity against the proliferation of A549 lung cancer cells: significant activity

## CVDIKDRKVKAKS [SEQ ID NO: 6, Ran positions 124 to 135 with N-terminal Cys]
MDA-MB-231 cells [1]
  activity against the proliferation of MDA MB-231 triple negative breast cancer cells: significant activity
A549 lung cancer cells
  activity against the proliferation of A549 lung cancer cells: significant activity
